Reference: paper PMC11192711, “Automated radiosynthesis and preclinical evaluation of two new PSMA-617 derivatives radiolabelled via [^18F]AlF^2+ method” (EJNMMI Radiopharmacy and Chemistry, 2024)

System: LNCaP tumour-bearing NSG mice
Assay: PET/CT in vivo biodistribution and tumour uptake in subcutaneous LNCaP prostate cancer xenograft model
Conditions: n = 4; for Bone (SUV mean) / Brain (SUV mean) / Colon (SUV mean) / Gall bladder (SUV mean) / Heart (SUV mean) / Kidney (SUV mean) / Liver (SUV mean) / Lung (SUV mean) / Muscle (SUV mean) / Salivary gland (SUV mean) / Small instestine (SUV mean): LNCaP NSG male mice, i.v., PET/CT; for ratio between tumour and muscle (tumour SUV max/muscle SUV mean) / uptake in the tumour expressed as SUV max: LNCaP tumour, NSG mice
Protocol: The uptake of [^18F]F-PSMA-1007 and [^18F]F-PSMA-617-NODA ([^18F]1) was compared in vivo in a xenograft model of human prostate cancer obtained using LNCaP cells which are PSMA positive, as confirmed by real time PCR-analysis (Additional file 1: S69A). LNCaP tumour-bearing NSG mice were injected i.v. with either [^18F]F-PSMA-1007 or [^18F]F-PSMA-617-NODA (~ 3.8 MBq/mouse, ~ 20 pmol for [^18F]F-PSMA-1007 and ~ 50 pmol [^18F]1). Radiotracer uptake was assessed after 10, 60 and 120 min post injection by whole-body PET/CT acquisitions.
Total body biodistribution of [^18F]F-PSMA-1007, [^18F]F-PSMA-617-NODA and [^18F]F-PSMA-617-RESCA was evaluated in vivo using imaging PET/CT. [^18F]F-PSMA-617-NODA uptake was compared to that of the [^18F]F-PSMA-1007 in a PSMA positive prostate tumour xenograft model (LNCaP). [^18F]F-PSMA-617-NODA and [^18F]F-PSMA-617-RESCA uptake were also evaluated using an orthotopic glioma model (Gli36ΔEGFR).
Animal experiments were carried out in compliance with institutional guidelines for the care and the use of experimental animals, which have been authorized by the Italian Ministry of Health (n° 378/2019-PR and 817/2021-PR). The animals were housed at constant temperature (23 °C) and relative humidity (40%) under a regular light/dark cycle with food and water available ad libitum. Seven to eight weeks old male NSG mice (Charles River Laboratories Italia s.r.l., Italy) were subcutaneously inoculated in the right flank with 5 × 10^6 of PSMA‐positive human prostate cancer cells (LNCaP) suspended in matrigel (1: 1, total volume 200 ul). The growth tumour was monitored periodically with calliper and tumour volume was calculated using the following formula: […]
When the tumour volume was about 230.8 ± 60.3 mm^3 (approximately 15 days after tumour cells inoculation), 4 animals performed an in vivo biodistribution of [^18F]F-PSMA-1007 and [^18F]F-PSMA-617-NODA, on successive but non-consecutive days, using PET/CT.
Mice were injected into a tail vein with 3.8 ± 0.1 MBq of [^18F]F-PSMA-1007, 4.0 ± 0.2 MBq of [^18F]F-PSMA-617-NODA ([^18F]1) and 3.8 ± 0.1 MBq of [^18F]F-PSMA-617-RESCA ([^18F]2), respectively.
Total body PET/CT acquisitions were performed using PET/CT tomographs dedicated to small animals, X-ß-CUBE (Molecubes, Gent, Belgium) after 10, 60 and 120 min from tracer injection. Each acquisition lasted 30 min and mice were maintained anesthetized (4% isoflurane in induction and 2% in maintenance in air) during acquisition.
Image quantification analysis was performed with PMOD 4.105 software (Zurich, Switzerland). Volumes of interest (VOIs) were drawn on peripheral organs (tumour, thoracic muscle, heart, liver, kidney, salivary glands, lung, small intestine, colon, bone, gall bladder) and on the healthy brain using CT images. For the glioma model, PET/CT images were co-registered to MRI images and two different VOIs were defined: (1) a control VOI covering the healthy left striatum (volume 4 mm^3) was drawn on the axial MR images, adjusted on the other imaging planes and then copied on the PET images of each mouse; (2) a second glioma-covering VOI was drawn in the tumour-affected brain hemisphere and centered on mice lesions.
For quantification, Standardized Uptake Value (SUV) was calculated according to the formula:
SUV = organ concentration activity [MBq/g]/(injected activity [MBq]/animal weight [g]).
The data were expressed as standardized-uptake-values (SUVmean and SUVmax) and as tumour-to-muscle (T/M) and tumour-to-blood (T/B) ratio in PCa model and as tumour-to-contralateral (T/Cl) ratio in glioma model.

O=C(O)CC[C@H](NC(=O)N[C@@H](CCCCNC(=O)[C@H](Cc1ccc2ccccc2c1)NC(=O)c1ccc(CNC(=O)[C@H](CCC(=O)O)NC(=O)[C@H](CCC(=O)O)NC(=O)c2ccc([18F])nc2)cc1)C(=O)O)C(=O)O [[^18F]F-PSMA-1007, reference compound]
Bone (SUV mean) (10 min p.i.): 0.36 ± 0.09
Brain (SUV mean) (10 min p.i.): 0.12 ± 0.02
Colon (SUV mean) (10 min p.i.): 0.35 ± 0.27
Gall bladder (SUV mean) (10 min p.i.): 0.99 ± 0.40
Heart (SUV mean) (10 min p.i.): 0.38 ± 0.09
Kidney (SUV mean) (10 min p.i.): 9.55 ± 2.63
Liver (SUV mean) (10 min p.i.): 0.50 ± 0.04
Lung (SUV mean) (10 min p.i.): 0.46 ± 0.09
Muscle (SUV mean) (10 min p.i.): 0.23 ± 0.03
Salivary gland (SUV mean) (10 min p.i.): 1.40 ± 0.25
Small instestine (SUV mean) (10 min p.i.): 0.60 ± 0.05
Bone (SUV mean) (60 min p.i.): 0.26 ± 0.09
Brain (SUV mean) (60 min p.i.): 0.09 ± 0.03
Colon (SUV mean) (60 min p.i.): 0.28 ± 0.14
Gall bladder (SUV mean) (60 min p.i.): 1.02 ± 0.43
Heart (SUV mean) (60 min p.i.): 0.28 ± 0.06
Kidney (SUV mean) (60 min p.i.): 12.04 ± 2.49
Liver (SUV mean) (60 min p.i.): 0.33 ± 0.06
Lung (SUV mean) (60 min p.i.): 0.40 ± 0.16
Muscle (SUV mean) (60 min p.i.): 0.20 ± 0.04
Salivary gland (SUV mean) (60 min p.i.): 1.40 ± 0.20
Small instestine (SUV mean) (60 min p.i.): 0.49 ± 0.12
Bone (SUV mean) (120 min p.i.): 0.21 ± 0.08
Brain (SUV mean) (120 min p.i.): 0.10 ± 0.03
Colon (SUV mean) (120 min p.i.): 0.26 ± 0.08
Gall bladder (SUV mean) (120 min p.i.): 0.75 ± 0.48
Heart (SUV mean) (120 min p.i.): 0.24 ± 0.03
Kidney (SUV mean) (120 min p.i.): 14.49 ± 1.41
Liver (SUV mean) (120 min p.i.): 0.21 ± 0.02
Lung (SUV mean) (120 min p.i.): 0.31 ± 0.07
Muscle (SUV mean) (120 min p.i.): 0.15 ± 0.05
Salivary gland (SUV mean) (120 min p.i.): 1.58 ± 0.12
Small instestine (SUV mean) (120 min p.i.): 0.30 ± 0.07
ratio between tumour and muscle (tumour SUV max/muscle SUV mean) (60 min p.i.): 7.46 ± 1.55
uptake in the tumour expressed as SUV max (60 min p.i.): 1.48 ± 0.29
ratio between tumour and muscle (tumour SUV max/muscle SUV mean) (120 min p.i.): 11.99 ± 6.16
uptake in the tumour expressed as SUV max (120 min p.i.): 1.60 ± 0.44
